The source made the active and inactive calls. The calls are words filed in the database; no cut-off is given here.
Columns and labels:
[1] = Ovicidal activity against Drosophila melanogaster egg by paper disk method; assay type: ADME
[2] = Photoovicidal activity against Drosophila melanogaster egg pretreated 1 hr before UV light irradiation for 45 mins by paper disk method; assay type: ADME; details: 0.75 h
Drosophila melanogaster = assay: Phototoxicity against Drosophila melanogaster larvae; assay type: functional, organism-based
[3] = Ratio of ID50 for Drosophila melanogaster egg to ID50 for Drosophila melanogaster egg irradiated with UV light for 45 mins; assay type: ADME
Escherichia coli = assay: Phototoxicity against Escherichia coli B; assay type: functional, organism-based
Aedes aegypti = assay: Phototoxicity against Aedes aegypti larvae; assay type: functional, organism-based
Saccharomyces cerevisiae = assay: Phototoxicity against Saccharomyces cerevisiae; assay type: functional, organism-based
[4] = Increase in ovicidal activity against Drosophila melanogaster egg incubated in dark by paper disk method; assay type: ADME
Cyberlindnera jadinii = assay: Phototoxicity against Candida utilis; assay type: functional, organism-based

| SMILES | LD50 [1] [microg/cm2] | LD50 [2] [microg/cm2] | Activity (Drosophila melanogaster) | selectivity ratio at 0.75 h [3] | Activity (Escherichia coli) | Activity (Aedes aegypti) | Activity (Saccharomyces cerevisiae) | Activity [4] | Activity (Cyberlindnera jadinii) |
| --- | --- | --- | --- | --- | --- | --- | --- | --- | --- |
| O=c1ccc2ccccc2o1 [COUMARIN] | 23 | – | – | – | – | – | – | – | – |
| CC#Cc1ccc(-c2ccccc2)s1 | 2.9 | 0.013 | Active | 225 | Active | Active | Active | Not Active | Active |
| C#Cc1ccc(-c2ccccc2)s1 | 4.6 | 0.025 | Active | 200 | Active | Active | Active | Not Active | Active |

From ChEMBL document CHEMBL1145668, “The Effect of Ultraviolet Light on the Toxicity of Natural Products Toward the Eggs of Drosophila melanogaster” (J Nat Prod, 1983)
